Results reported in the Kinase Knowledgebase extract (Sharma et al. 2016).

Experiments:
Assay in all cases: Enzyme Assay
PIK3CG (human) = PIK3CG (human) (UniProt P48736)
PIK3CD (Human) = PIK3CD (Human) (UniProt O00329)
PIK3CA (human) = PIK3CA (human) (UniProt P42336)
PIK3CB (Human) = PIK3CB (Human) (UniProt P42338)
Sequence of PIK3CB (Human) (P42338 whole entry, looked up): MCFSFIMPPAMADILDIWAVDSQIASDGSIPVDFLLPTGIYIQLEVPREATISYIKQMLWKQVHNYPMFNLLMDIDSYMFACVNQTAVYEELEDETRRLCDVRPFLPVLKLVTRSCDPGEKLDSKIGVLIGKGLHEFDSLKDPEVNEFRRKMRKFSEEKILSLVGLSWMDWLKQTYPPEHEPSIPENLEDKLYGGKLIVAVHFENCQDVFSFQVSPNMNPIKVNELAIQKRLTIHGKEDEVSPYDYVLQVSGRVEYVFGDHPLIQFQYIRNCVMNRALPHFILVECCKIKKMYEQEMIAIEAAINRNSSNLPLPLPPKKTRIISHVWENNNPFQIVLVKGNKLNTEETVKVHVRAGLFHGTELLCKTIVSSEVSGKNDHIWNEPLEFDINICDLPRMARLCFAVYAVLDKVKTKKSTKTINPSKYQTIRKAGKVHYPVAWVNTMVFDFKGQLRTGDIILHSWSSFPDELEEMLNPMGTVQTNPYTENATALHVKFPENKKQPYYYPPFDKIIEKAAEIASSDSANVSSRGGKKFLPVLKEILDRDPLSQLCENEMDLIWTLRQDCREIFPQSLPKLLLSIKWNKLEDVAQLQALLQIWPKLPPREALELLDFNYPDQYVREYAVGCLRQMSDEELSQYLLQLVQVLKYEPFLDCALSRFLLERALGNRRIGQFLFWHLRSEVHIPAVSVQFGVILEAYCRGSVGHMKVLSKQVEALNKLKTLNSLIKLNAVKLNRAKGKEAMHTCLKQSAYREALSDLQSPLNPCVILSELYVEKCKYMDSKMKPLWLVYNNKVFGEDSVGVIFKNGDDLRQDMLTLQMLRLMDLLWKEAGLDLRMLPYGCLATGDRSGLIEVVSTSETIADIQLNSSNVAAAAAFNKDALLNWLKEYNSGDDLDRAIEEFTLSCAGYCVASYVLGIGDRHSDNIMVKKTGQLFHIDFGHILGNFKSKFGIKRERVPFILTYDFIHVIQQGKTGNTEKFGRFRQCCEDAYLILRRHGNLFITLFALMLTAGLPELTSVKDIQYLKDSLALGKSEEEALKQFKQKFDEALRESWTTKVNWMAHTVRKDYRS

Sequence of PIK3CG (human) (P48736 whole entry, looked up): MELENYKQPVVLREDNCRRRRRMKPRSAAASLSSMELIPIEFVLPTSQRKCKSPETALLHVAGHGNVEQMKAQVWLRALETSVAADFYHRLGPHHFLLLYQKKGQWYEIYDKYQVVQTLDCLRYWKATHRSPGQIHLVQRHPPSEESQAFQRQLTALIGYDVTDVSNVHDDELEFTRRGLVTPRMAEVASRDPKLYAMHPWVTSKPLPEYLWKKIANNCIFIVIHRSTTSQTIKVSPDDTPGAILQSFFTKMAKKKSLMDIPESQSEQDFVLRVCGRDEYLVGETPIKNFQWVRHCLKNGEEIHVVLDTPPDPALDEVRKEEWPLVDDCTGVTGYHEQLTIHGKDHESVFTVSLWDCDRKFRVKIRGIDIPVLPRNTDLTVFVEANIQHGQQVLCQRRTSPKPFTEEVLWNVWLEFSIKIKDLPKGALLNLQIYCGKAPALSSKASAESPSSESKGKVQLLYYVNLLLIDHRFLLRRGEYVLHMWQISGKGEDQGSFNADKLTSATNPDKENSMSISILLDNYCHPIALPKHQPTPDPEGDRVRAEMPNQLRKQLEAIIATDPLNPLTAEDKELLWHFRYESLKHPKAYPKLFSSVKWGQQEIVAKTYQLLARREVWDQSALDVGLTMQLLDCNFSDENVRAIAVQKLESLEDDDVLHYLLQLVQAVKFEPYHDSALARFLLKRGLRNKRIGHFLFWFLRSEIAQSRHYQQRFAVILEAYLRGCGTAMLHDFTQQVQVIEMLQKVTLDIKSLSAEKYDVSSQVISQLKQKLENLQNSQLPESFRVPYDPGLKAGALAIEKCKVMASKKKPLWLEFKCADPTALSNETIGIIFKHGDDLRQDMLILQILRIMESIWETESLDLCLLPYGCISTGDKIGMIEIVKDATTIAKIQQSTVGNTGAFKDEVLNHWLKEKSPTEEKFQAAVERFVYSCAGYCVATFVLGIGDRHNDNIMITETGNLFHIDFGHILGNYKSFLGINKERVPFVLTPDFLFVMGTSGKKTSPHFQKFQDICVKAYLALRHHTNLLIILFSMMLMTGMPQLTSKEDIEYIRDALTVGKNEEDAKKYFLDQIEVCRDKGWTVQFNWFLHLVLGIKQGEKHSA
Sequence of PIK3CA (human) (P42336 whole entry, looked up): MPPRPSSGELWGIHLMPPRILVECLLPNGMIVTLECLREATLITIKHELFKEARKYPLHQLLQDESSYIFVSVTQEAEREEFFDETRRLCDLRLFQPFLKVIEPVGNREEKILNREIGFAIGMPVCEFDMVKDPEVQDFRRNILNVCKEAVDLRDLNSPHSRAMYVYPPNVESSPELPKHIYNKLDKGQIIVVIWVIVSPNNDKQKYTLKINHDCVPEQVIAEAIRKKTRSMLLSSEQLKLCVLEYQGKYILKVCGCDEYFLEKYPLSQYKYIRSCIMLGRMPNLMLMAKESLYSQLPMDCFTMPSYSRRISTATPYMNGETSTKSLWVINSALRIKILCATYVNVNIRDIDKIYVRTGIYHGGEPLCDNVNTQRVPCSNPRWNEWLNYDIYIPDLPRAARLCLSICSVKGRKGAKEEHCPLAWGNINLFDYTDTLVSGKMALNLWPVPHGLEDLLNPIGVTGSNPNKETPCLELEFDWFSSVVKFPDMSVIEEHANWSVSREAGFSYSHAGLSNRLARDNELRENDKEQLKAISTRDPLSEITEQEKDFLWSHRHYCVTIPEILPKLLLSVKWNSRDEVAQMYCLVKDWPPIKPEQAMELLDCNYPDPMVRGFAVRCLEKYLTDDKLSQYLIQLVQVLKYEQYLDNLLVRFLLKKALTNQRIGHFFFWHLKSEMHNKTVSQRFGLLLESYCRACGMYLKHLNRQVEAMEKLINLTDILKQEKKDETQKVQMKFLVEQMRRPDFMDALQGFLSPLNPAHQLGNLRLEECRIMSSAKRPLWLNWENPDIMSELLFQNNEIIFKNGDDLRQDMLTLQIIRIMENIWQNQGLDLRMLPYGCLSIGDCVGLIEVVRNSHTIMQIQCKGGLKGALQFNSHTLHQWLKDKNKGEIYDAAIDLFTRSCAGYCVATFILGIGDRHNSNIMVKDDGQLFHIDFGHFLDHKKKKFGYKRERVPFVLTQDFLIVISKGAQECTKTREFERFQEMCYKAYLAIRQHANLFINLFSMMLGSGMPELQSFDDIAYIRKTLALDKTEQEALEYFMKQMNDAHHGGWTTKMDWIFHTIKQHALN
Sequence of PIK3CD (Human) (O00329 whole entry, looked up): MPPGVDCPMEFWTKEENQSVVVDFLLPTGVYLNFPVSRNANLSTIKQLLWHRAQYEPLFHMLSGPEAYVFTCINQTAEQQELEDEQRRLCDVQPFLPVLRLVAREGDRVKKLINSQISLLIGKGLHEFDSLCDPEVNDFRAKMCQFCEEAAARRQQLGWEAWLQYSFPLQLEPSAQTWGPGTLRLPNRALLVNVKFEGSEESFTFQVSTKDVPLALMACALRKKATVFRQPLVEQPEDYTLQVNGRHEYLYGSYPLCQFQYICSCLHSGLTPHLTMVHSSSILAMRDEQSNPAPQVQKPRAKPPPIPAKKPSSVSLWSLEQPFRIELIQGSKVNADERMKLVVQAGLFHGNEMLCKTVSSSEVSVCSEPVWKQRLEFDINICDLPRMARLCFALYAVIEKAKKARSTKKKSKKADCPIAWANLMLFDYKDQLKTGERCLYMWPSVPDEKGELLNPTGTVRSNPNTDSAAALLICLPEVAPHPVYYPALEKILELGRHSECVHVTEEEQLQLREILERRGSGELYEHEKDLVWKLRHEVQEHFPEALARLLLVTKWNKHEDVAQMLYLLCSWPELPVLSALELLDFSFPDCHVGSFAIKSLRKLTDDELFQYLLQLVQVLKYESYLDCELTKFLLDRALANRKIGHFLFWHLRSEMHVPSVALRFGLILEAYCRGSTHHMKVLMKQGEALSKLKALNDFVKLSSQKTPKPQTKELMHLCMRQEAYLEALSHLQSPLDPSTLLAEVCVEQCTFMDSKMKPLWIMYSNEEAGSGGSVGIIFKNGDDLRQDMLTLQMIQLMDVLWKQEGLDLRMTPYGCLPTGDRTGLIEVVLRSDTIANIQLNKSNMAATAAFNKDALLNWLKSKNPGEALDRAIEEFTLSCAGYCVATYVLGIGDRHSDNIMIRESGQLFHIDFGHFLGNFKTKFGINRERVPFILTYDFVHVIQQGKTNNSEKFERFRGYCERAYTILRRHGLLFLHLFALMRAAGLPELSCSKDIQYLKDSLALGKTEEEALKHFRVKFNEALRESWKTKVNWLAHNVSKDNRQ

Row | Compound | IC50 (PIK3CG (human)) [nM] | IC50 (PIK3CD (Human)) [nM] | IC50 (PIK3CA (human)) [nM] | IC50 (PIK3CB (Human)) [nM]
1 | COc1ccccc1-c1cccc2cc([C@H](C)Nc3ncnc4scnc34)n(-c3ccccc3)c(=O)c12 | 100 to 1000 | < 100 |  | 
2 | COc1ncc(-c2cccc3cc([C@H](C)Nc4ncnc5scnc45)n(-c4ccccc4)c(=O)c23)cc1C(F)(F)F | < 100 | < 100 |  | 
3 | COc1ccc(-c2cccc3cc([C@H](C)Nc4ncnc5scnc45)n(-c4ccccc4)c(=O)c23)cc1 | < 100 | < 100 |  | 
4 | C[C@H](Nc1ncnc2scnc12)c1cc2cccc(/C=C/c3ccccc3)c2c(=O)n1-c1ccccc1 | < 100 | 100 to 1000 |  | 
5 | Cc1ccnc2cc(C(C)Nc3ncnc4scnc34)n(-c3ccccc3)c(=O)c12 (configuration not stated) | < 100 | < 100 | > 10000 | 
6 | C[C@H](Nc1ncnc2scnc12)c1cc2cccc(Cl)c2c(=O)n1-c1cccc(C(F)(F)F)c1 | 100 to 1000 | 100 to 1000 | > 10000 | 
7 | C[C@H](Nc1ccnc2scnc12)c1cc2cccc(Cl)c2c(=O)n1-c1cccc(F)c1 | < 100 | < 100 |  | 100 to 1000
8 | Cc1c(-c2cccc3cc([C@H](C)Nc4ncnc5scnc45)n(-c4ccccc4)c(=O)c23)cnn1C | 100 to 1000 | < 100 |  | 
9 | C[C@H](Nc1ncnc2scnc12)c1cc2cccc(-c3cncc(F)c3)c2c(=O)n1-c1ccccc1 | < 100 | < 100 |  | > 10000
10 | C[C@H](Nc1ncnc2scnc12)c1cc2cccc(-c3ccnc(C(F)(F)F)c3)c2c(=O)n1-c1ccccc1 | 100 to 1000 | < 100 |  | 
11 | Cc1cccc2cc([C@H](C)Nc3ncnc4scnc34)n(-c3cccc(F)c3)c(=O)c12 | < 100 | < 100 |  | 100 to 1000
12 | CCCCc1cccc2cc([C@H](C)Nc3ncnc4scnc34)n(-c3ccccc3)c(=O)c12 | < 100 | < 100 |  | 

The next lines start with the values.

Row | IC50 (PIK3CG (human)) [nM] | IC50 (PIK3CD (Human)) [nM] | IC50 (PIK3CA (human)) [nM] | IC50 (PIK3CB (Human)) [nM] | Compound
13 | < 100 | < 100 |  |  | C[C@H](Nc1ncnc2scnc12)c1cc2cccc(-c3cnn(C)c3)c2c(=O)n1-c1cccc(F)c1
14 | 100 to 1000 | < 100 |  |  | COc1ncc(-c2cccc3cc([C@H](C)Nc4ncnc5scnc45)n(C4CC4)c(=O)c23)cn1
15 | < 100 | < 100 |  |  | COc1ccc(-c2cccc3cc([C@H](C)Nc4ncnc5scnc45)n(-c4ccccc4)c(=O)c23)cn1
16 | < 100 | < 100 | 100 to 1000 |  | COc1cc(-c2cccc3cc([C@H](C)Nc4ncnc5scnc45)n(-c4ccccc4)c(=O)c23)ccn1
17 | < 100 | < 100 | 100 to 1000 |  | C[C@H](Nc1ncnc2scnc12)c1cc2cccc(-c3cnc(N)nc3)c2c(=O)n1-c1ccccc1
18 | 100 to 1000 | < 100 |  | > 10000 | Cc1ncc(-c2cccc3cc([C@H](C)Nc4ncnc5scnc45)n(-c4ccccc4)c(=O)c23)cn1
19 | < 100 | < 100 | 100 to 1000 |  | C[C@H](Nc1ncnc2scnc12)c1cc2cccc(-c3ccc(N)nc3)c2c(=O)n1-c1ccccc1
20 | < 100 | < 100 |  | < 100 | C[C@H](Nc1ncnc2scnc12)c1cc2cccc(Cl)c2c(=O)n1C
21 | < 100 | < 100 | 100 to 1000 |  | COc1ncc(-c2cccc3cc([C@H](C)Nc4ncnc5scnc45)n(-c4ccccc4)c(=O)c23)s1
22 | < 100 | < 100 |  |  | Cc1cc(-c2cccc3cc([C@H](C)Nc4ncnc5scnc45)n(-c4ccccc4)c(=O)c23)cnc1C
23 | < 100 | < 100 |  |  | Cc1ccc(-c2cccc3cc([C@H](C)Nc4ncnc5scnc45)n(-c4ccccc4)c(=O)c23)cn1
